Experimental data from patent US20230331720A1, “MEDIUM- OR MACRO-CYCLIC BENZYL-SUBSTITUTED HETEROCYCLE DERIVATIVES AND THEIR USES AS OREXIN-2 RECEPTOR AGONISTS” (Orexia Therapeutics Limited, priority 2020, published 2023).

tested on: not given; experiment: not given; conditions: amide bond; 13-membered ring; HATU/DIEA; DMF; 10.0 mM; 25.0 °C

| Compound | ring closure, isolated yield |
| --- | --- |
| N-(5-oxo-9-oxa-4(2,1)-pyrrolidina-1(1.2),2(1,3)-dibenzenacyclo-nonaphane-4^3-yl)ethanesulfonamide_cis racemic | 49% |

same assay, conditions: crosslinker bond; 13-membered ring; CDI/DIEA; DMF; 97.5 mM; 70.0 °C

| Compound | ring closure, isolated yield |
| --- | --- |
| N-(5-oxo-9-oxa-6-aza-4(2,1)-piperidina-1(1,2),2(1,3)-dibenzenacyclo-nonaphane-4^3-yl)methanesulfonamide_cis racemic | 23% |

same assay, conditions: crosslinker bond; 15-membered ring; CDI/DIEA; DMF; 10.0 mM; 70.0 °C

| Compound | ring closure, isolated yield |
| --- | --- |
| N-(5-oxo-6-aza-4(2,1)-piperidina-1(1,2),2(1.3)-dibenzenacyclo-undecaphane-4^3-yl)methanesulfonamide_cis racemic | 23% |

same assay, conditions: crosslinker bond; 16-membered ring; CDI/DIEA; THF/DMF 4:1; 10.0 mM; 70.0 °C

| Compound | ring closure, isolated yield |
| --- | --- |
| N-(5-oxo-12-oxa-6-aza-4(2,1)-pyrrolidina-1(1,2),2(1,3)-dibenzenacyclo-dodeca phane-43-yl)ethanesulfonamide_cis racemic | 38% |

same assay, conditions: from O=C(O)CCOc1ccccc1-c1cc(CC2NCCCC2=O)ccc1F; amide bond; 12-membered ring; HATU/DIEA; DMF; 0.54 mM; 25.0 °C; 12.0 h

| Compound | ring closure, isolated yield |
| --- | --- |
| O=C1CCCN2C(=O)CCOc3ccccc3-c3cc(ccc3F)CC12 (stereo not drawn) | 28.4% |

target: T1, human orexin type 2 receptor (hOX2R) (Homo sapiens, UniProt O43614); experiment: Orexin type 2 receptor agonist activity, intracellular Ca2+ (FLIPR TETRA); type: cell-based; conditions: CHO cells expressing hOX2R; Ca2+ fluorescence area
T1 construct: expressed in transfected cells
T1 sequence (O43614 1-444): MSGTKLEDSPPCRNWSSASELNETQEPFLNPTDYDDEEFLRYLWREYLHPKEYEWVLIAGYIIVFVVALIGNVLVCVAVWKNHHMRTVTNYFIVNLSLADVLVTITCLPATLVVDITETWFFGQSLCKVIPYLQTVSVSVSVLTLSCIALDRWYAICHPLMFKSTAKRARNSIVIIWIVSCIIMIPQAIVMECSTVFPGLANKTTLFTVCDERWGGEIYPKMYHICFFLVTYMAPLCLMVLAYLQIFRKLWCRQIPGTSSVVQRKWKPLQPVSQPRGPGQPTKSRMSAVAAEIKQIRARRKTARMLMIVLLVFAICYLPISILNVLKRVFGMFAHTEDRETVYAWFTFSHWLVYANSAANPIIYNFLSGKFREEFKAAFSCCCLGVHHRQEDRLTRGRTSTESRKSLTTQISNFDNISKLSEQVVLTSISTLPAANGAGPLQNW
Method: Stable cell line generation. Obtainment of cells stably expressing either human orexin type 2 or human orexin type 1 receptor; to obtain a stable cell line the Orexin receptor cDNA was inserted into pcDNA3.1(+) plasmid vector and clones identified by G418 drug resistance selection. […] A single clone for OX2R-CHO and OX1R-CHO were grown in bulk and frozen to generate a cell bank for routine screening.
Measurement of orexin type 2 receptor agonist activity. Chinese hamster ovary (CHO) cells expressing human orexin type 2 receptor (hOX2R) or human orexin type 1 receptor (hOX1R) were seeded in each well of 384 well black clear bottom plates (BD Flacon) at 10,000 cells per well and cultured for 24 hr in an Ham's F12 (Gibco) medium containing 10% fetal calf serum (Sigma Aldrich) under the conditions of 37° C., 5% CO2. After removal of the medium, 50 μl of assay buffer 1 (0.1% bovine serum albumin (Sigma Aldrich), 20 mM HEPES (Molecular Dimensions), […] probenecid (Sigma Aldrich), 1× Calcium 5 dye (Molecular Devices) in Hank's balanced salt solution (Invitrogen)) was added, and the cells were incubated for 60 min under the conditions of 37° C., 5% CO2. A test compound was dissolved in dimethyl sulfoxide (Sigma Aldrich) to 10 mM, and then diluted with assay buffer 2 (20 mM HEPES, Hank's balanced salt solution, 0.1% bovine serum albumin). For the reaction, a test compound solution (10 μl) was added using Fluorescent Imaging Plate Reader TETRA (FLIPR TETRA: manufactured by Molecular Devices), a fluorescence value (excitation wavelength 488 nm, measurement wavelength 570 nm) of each well was measured every one second for 2 min, and the agonist activity was determined using the area of the fluorescence value as an indicator of intracellular Ca^2+ concentration. The agonist activity of the test compound was calculated assuming that the fluorescence value of the well added with only the dilution buffer was 0% and the fluorescence value of the well added with 10 nM human orexin A (Tocris) buffer was 100%. As used herein, Emax indicates the value at 10 μM concentration when orexin A is converted to a full agonist (maximum value of agonist activity: 100%).

| Compound | hOx2 pEC50 |
| --- | --- |
| CCS(=O)(=O)NC1CCN2C(=O)OCCOc3ccccc3-c3cccc(c3)CC12 (stereo not drawn) [Compound A1-22, N-(5-oxo-6,9-dioxa-4(2,1)-pyrrolidina-1(1,2),2(1.3)-dibenzenacyclo-nonaphane-4^3-yl)ethanesulfonamide] | ++ (7.0≤“++”<8.0) |

same assay, conditions: CHO cells expressing hOX2R; Ca2+ fluorescence area; read-out: hOx2 pEC50 (converted)

| Compound | EC50 |
| --- | --- |
| CCS(=O)(=O)N[C@H]1CCN2C(=O)N(C)CCOc3ccccc3-c3cccc(c3)C[C@@H]12 [Compound A1-71] | 10 to 100 nM |
| CCS(=O)(=O)NC1CCN2C(=O)NCCOc3ccccc3-c3cccc(c3)CC12 (racemic) [Compound A1-30, N-(5-oxo-9-oxa-6-aza-4(2,1)-pyrrolidina-1(1,2),2(1,3)-dibenzenacyclo-nonaphane-4^3-yl)ethanesulfonamide] | 10 to 100 nM |
| CS(=O)(=O)NC1CCCN2C(=O)CCCCc3ccccc3-c3cccc(c3)CC12 (racemic) [Compound A1-1, N-(5-oxo-4(2,1)-piperidina-1(1,2),2(1,3)-dibenzenacyclononaphane-4^3-yl)-methanesulfonamide] | 100 to 1000 nM |
| CCS(=O)(=O)NC1CCN2C(=O)NC/C=C/Cc3ccccc3-c3cccc(c3)CC12 (racemic) [Compound A1-51, (E/Z)—N-(5-oxo-6-aza-4(2,1)-pyrrolidina-1(1,2),2(1.3)-dibenzenacyclo-decaphan-8-en4^3-yl)ethanesulfonamide] | 10 to 100 nM |
| CCS(=O)(=O)NC1CCN2C(=O)CCOCCCc3ccccc3-c3cccc(c3)CC12 (racemic) [Compound A1-20, N-(5-oxo-8-oxa-4(2,1)-pyrrolidina-1(1,2),2(1,3)-dibenzenacyclo-undecaphane-4^3-yl)ethanesulfonamide] | 100 to 1000 nM |
| CCS(=O)(=O)NC1CCN2C(=O)CCCc3ccccc3-c3cccc(c3)CC12 (racemic) [Compound A1-19, N-(5-oxo-4(2,1)-pyrrolidina-1(1,2),2(1,3)-dibenzenacyclooctaphane-4^3-yl)ethanesulfonamide] | 100 to 1000 nM |
| CS(=O)(=O)NC1CCCN2C(=O)NCCCCCc3ccccc3-c3cccc(c3)CC12 (racemic) [Compound A1-27, N-(5-oxo-6-aza-4(2,1)-piperidina-1(1,2),2(1.3)-dibenzenacyclo-undecaphane-4^3-yl)methanesulfonamide] | 1 to 10 nM |
| CCS(=O)(=O)N[C@@H]1CCN2C(=O)NCCCCCc3ccccc3-c3cccc(c3)C[C@H]12 (single isomer, unassigned) [Compound A1-43, N-((4^2R,4^3R)-5-oxo-6-aza-4(2,1)-pyrrolidina-1(1,2),2(1,3)-dibenzenacycloundecaphane-4^3-yl)ethanesulfonamide] | 100 to 1000 nM |
| CCS(=O)(=O)NC1CCN2C(=O)N3CC[C@H]3COc3ccccc3-c3cccc(c3)CC12 (stereo partly drawn) [Compound A1-65] | 10 to 100 nM |
| CS(=O)(=O)NC1CCCN2C(=O)CCCc3ccccc3-c3cccc(c3)CC12 (stereo not drawn) [Compound A1-59] | 10 to 100 nM |
| CS(=O)(=O)NC1CCCN2C(=O)CCCCCCc3ccccc3-c3cccc(c3)CC12 (racemic) [Compound A1-28, N-(5-oxo-4(2,1)-piperidina-1(1,2),2(1,3)-dibenzenacycloundecaphane-4^3-yl)methanesulfonamide] | 10 to 100 nM |
| CCS(=O)(=O)NC1CCN2C(=O)CCCOc3ccccc3-c3cccc(c3)CC12 (racemic) [Compound A1-31, N-(5-oxo-9-oxa-4(2,1)-pyrrolidina-1(1.2),2(1,3)-dibenzenacyclo-nonaphane-4^3-yl)ethanesulfonamide] | 100 to 1000 nM |
| CS(=O)(=O)N[C@H]1CCCN2C(=O)CCCOc3ccccc3-c3cccc(c3)C[C@@H]12 [Compound A1-64] | 10 to 100 nM |
| CS(=O)(=O)N[C@H]1CCN2C(=O)C(F)(F)CCCCCc3ccccc3-c3cccc(c3)C[C@@H]12 [Compound A1-66] | 10 to 100 nM |
| CCS(=O)(=O)N[C@H]1CCN2C(=O)NCCOc3ccccc3-c3cccc(c3)C[C@@H]12 [Compound A1-7, N-((4^2S,4^3S)-5-oxo-9-oxa-6-aza-4(2,1)-pyrrolidina-1-(1,2),2-(1,3)-dibenzenacyclo-nonaphane-4′-yl)ethanesulfonamide] | 10 to 100 nM |
| CS(=O)(=O)NC1CCN2C(=O)N3CC(CCCc4ccccc4-c4cccc(c4)CC12)C3 (racemic) [Compound A1-14, N-(5-oxo-4(2,1)-pyrrolidina-6(1,3)-azetidina-1(1,2),2(1,3)-dibenzenacyclo-nonaphane-4^3-yl)methanesulfonamide] | 10 to 100 nM |
| CN1CCOc2ccccc2-c2cccc(c2)C[C@H]2[C@@H](NS(C)(=O)=O)CCN2C1=O [Compound A1-61] | 10 to 100 nM |

Next, values leading:

| EC50 | Compound |
| --- | --- |
| 1 to 10 nM | O=C1CCOc2ccccc2-c2cc(ccc2F)C[C@H]2[C@@H](NS(=O)(=O)CF)CCCN12 [Compound A1-87, 1-fluoro-N-((4^2S,4^3S)-26-fluoro-5-oxo-8-oxa-4(2,1)-piperidina-1(1,2),2(1,3)-dibenzenacyclooctaphane-4^3-yl)methanesulfonamide] |
| 1 to 10 nM | O=C1CCOc2ccccc2-c2cccc(c2)C[C@H]2[C@@H](NS(=O)(=O)CF)CCCN12 [Compound A1-80] |
| 1 to 10 nM | CCS(=O)(=O)N[C@H]1CCCN2C(=O)CCOc3ccccc3-c3cccc(c3)C[C@@H]12 [Compound A1-72] |
| 1 to 10 nM | CN(C)S(=O)(=O)N[C@H]1CCCN2C(=O)CCOc3ccccc3-c3cccc(c3)C[C@@H]12 [Compound A1-76, N-((4^2S,4^3S)-5-oxo-8-oxa-4(2,1)-piperidina-1(1,2),2(1,3)-dibenzenacyclooctaphane-4^3-yl)-N,N-dimethylsulfuric diamide] |
| 1 to 10 nM | CN1CCOc2ccccc2-c2cccc(c2)C[C@H]2[C@@H](NS(=O)(=O)C(F)F)C3(CC3)CN2C1=O [Compound A1-95, 1,1-difluoro-N-((2′S,3′S)-6′-methyl-5′-oxospiro[cyclopropane-1,4′-9-oxa-6-aza-4(2,1)-pyrrolidina-1(1,2),2(1,3)-dibenzenacyclononaphan]-3′-yl)methanesulfonamide] |
| 10 to 100 nM | O=C1CCOc2ccccc2-c2cc(F)cc(c2F)C[C@H]2[C@@H](NS(=O)(=O)CF)CCCN12 [Compound A1-97] |
| 1 to 10 nM | CCS(=O)(=O)N[C@H]1CCCN2C(=O)CCOc3ccccc3-c3cccc(c3F)C[C@@H]12 [Compound A1-100] |
| 1 to 10 nM | CS(=O)(=O)N[C@H]1CCCN2C(=O)CCOc3ccccc3-c3cccc(c3)C[C@@H]12 [Compound A1-78, N-((4^2S,4^3S)-5-oxo-8-oxa-4(2,1)-piperidina-1(1,2),2(1,3)-dibenzenacyclo-octaphane-4^3-yl)methanesulfonamide] |
| 1 to 10 nM | COc1c2cccc1-c1ccccc1OCCN(C)C(=O)N1C[C@H](F)[C@H](NS(=O)(=O)CF)[C@@H]1C2 [Compound A1-86] |
| 0.1 to 1 nM | O=C1CCOc2ccccc2-c2cccc(c2F)C[C@H]2[C@@H](NS(=O)(=O)C(F)F)CCCN12 [Compound A1-98] |
